Results published in ChEMBL document CHEMBL1770088, “Orally bioavailable imidazoazepanes as calcitonin gene-related peptide (CGRP) receptor antagonists: discovery of MK-2918” (Bioorg Med Chem Lett, 2011).
Values after ≈ are worked out from the molar mass of the structure shown.

What was measured:
Homo sapiens = organism: Homo sapiens; test: Ratio of IC50 for inhibition of [35S]-MK-499 binding to human ERG channel to IC50 for inhibition of cell based CGRP-stimulated cAMP production
[1] = molecular target: T1, Calcitonin gene-related peptide type 1 receptor (Homo sapiens, UniProt O60894+Q16602); test: Antagonist activity at CGRP receptor assessed as inhibition of CGRP-stimulated cAMP production by cell based assay in presence of 50% human serum; assay type: functional
T1 sequence (Q16602 whole entry, one chain of several): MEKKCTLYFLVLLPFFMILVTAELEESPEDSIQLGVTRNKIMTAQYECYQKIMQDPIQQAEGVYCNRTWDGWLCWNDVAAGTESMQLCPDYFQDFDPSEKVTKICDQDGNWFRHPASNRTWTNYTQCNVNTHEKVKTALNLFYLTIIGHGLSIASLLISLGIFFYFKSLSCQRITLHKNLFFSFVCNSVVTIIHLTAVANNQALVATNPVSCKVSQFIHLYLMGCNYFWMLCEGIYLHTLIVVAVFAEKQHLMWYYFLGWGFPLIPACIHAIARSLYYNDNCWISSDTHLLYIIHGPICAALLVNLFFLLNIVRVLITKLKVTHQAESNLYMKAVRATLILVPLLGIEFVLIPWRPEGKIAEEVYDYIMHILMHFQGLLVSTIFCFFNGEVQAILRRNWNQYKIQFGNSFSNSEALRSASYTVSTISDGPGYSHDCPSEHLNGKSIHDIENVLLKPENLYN

[2] = molecular target: T1, Calcitonin gene-related peptide type 1 receptor; test: Displacement of [125I]-CGRP from human recombinant CGRP receptor
[3] = Oral bioavailability in rat at 10 mg/kg, po administered as a suspension in 1% aqueous methylcellulose; assay type: ADME, organism-based; settings: in vivo
[4] = molecular target: T1, Calcitonin gene-related peptide type 1 receptor; test: Antagonist activity at CGRP receptor assessed as inhibition of CGRP-stimulated cAMP production by cell based assay; assay type: functional
[5] = Oral bioavailability in rat at 10 mg/kg, po administered as a solution in 1:1 imwitor:tween; assay type: ADME, organism-based; settings: in vivo
[6] = Apparent permeability of compound; assay type: ADME; settings: not told
Rhesus monkey [7] = test: Oral bioavailability in rhesus monkey assessed as N-((6S,9R)-6-(2,3-difluorophenyl)-3-(2-hydroxypropan-2-yl)-6,7,8,9-tetrahydro-5H-imidazo[1,2-a]azepin-9-yl)-2'-oxo-1',2'-dihydrospiro[piperidine-4,4'-pyrido[2,3-d][1,3]oxazine]-1-carboxamide at 10 mg/kg, po or iv normalized to AUC; assay type: ADME, organism-based, Macaca mulatta; settings: in vivo
[8] = Oral bioavailability in dog at 10 mg/kg, po; assay type: ADME, organism-based, Canis lupus familiaris; settings: in vivo
[9] = Oral bioavailability in rhesus monkey at 10 mg/kg, po; assay type: ADME, organism-based, Macaca mulatta; settings: in vivo
Canis familiaris = test: Oral bioavailability in dog assessed as N-((6S,9R)-6-(2,3-difluorophenyl)-3-(2-hydroxypropan-2-yl)-6,7,8,9-tetrahydro-5H-imidazo[1,2-a]azepin-9-yl)-2'-oxo-1',2'-dihydrospiro[piperidine-4,4'-pyrido[2,3-d][1,3]oxazine]-1-carboxamide at 10 mg/kg, po or iv normalized to AUC; assay type: ADME, organism-based, Canis lupus familiaris; settings: in vivo
[10] = Aqueous solubility of the compound at pH 3; assay type: physicochemical; settings: buffer
Rattus norvegicus = test: Oral bioavailability in rat assessed as N-((6S,9R)-6-(2,3-difluorophenyl)-3-(2-hydroxypropan-2-yl)-6,7,8,9-tetrahydro-5H-imidazo[1,2-a]azepin-9-yl)-2'-oxo-1',2'-dihydrospiro[piperidine-4,4'-pyrido[2,3-d][1,3]oxazine]-1-carboxamide at 10 mg/kg, po or iv normalized to AUC; assay type: ADME, organism-based; settings: in vivo
[11] = Aqueous solubility of the compound at pH 7.4; settings: buffer
Rhesus monkey [12] = test: Inhibition of capsaicin-induced dermal vasodilation in orally dosed rhesus monkey; assay type: functional, Macaca mulatta

| IC50 [1] | Ki [2] | bioavailability [3] | IC50 [4] | Compound | Ratio IC50 (Homo sapiens) | other results |
| --- | --- | --- | --- | --- | --- | --- |
| 0.76 nM | 0.036 nM | 8% | 0.21 nM | CC1(c2cnc3n2C[C@H](c2cccc(F)c2F)CC[C@H]3NC(=O)N2CCC3(CC2)OC(=O)Nc2ncccc23)CCCO1 (some centres not stated) | 17000 | – |
| 1.4 nM | 0.4 nM | – | 0.82 nM | COC(C)(C)c1cnc2n1C[C@H](c1cccc(F)c1F)CC[C@H]2NC(=O)N1CCC2(CC1)C(=O)Nc1ncccc12 | 9700 | bioavailability [5]: 5% |
| 4 nM | 0.61 nM | 47% | 0.94 nM | O=C(N[C@@H]1CC[C@@H](c2cccc(F)c2F)Cn2c(CC(F)(F)F)cnc21)N1CCC2(CC1)C(=O)Nc1ncccc12 | 9300 | – |
| 1.3 nM | 0.19 nM | < 1% | 0.83 nM | O=C1Nc2ncccc2C2(CCN(C(=O)N[C@@H]3CC[C@@H](c4cccc(F)c4F)Cn4c(CC(F)(F)F)nnc43)CC2)O1 | > 36000 | – |
| 0.63 nM | 0.05 nM | 16% | 0.24 nM | COC(C)(C)c1cnc2n1C[C@H](c1cccc(F)c1F)CC[C@H]2NC(=O)N1CCC2(CC1)OC(=O)Nc1ncccc12 | 32000 | F (Rhesus monkey [7]): 29%; bioavailability [8]: 10%; bioavailability [9]: 5%; F (Canis familiaris): 14%; solubility [10]: 1100 µg/mL (≈ 1890 µM); Papp [6]: 24 ×10⁻⁶ cm/s; F (Rattus norvegicus): 26% |
| 1.5 nM | 0.29 nM | 3% | 0.86 nM | CC(C)(O)c1cnc2n1C[C@H](c1cccc(F)c1F)CC[C@H]2NC(=O)N1CCC2(CC1)OC(=O)Nc1ncccc12 | 23000 | EC90 (Rhesus monkey [12]): 330 nM |
| 2.7 nM | 0.48 nM | – | 2.3 nM | O=C(N[C@@H]1CC[C@@H](c2cccc(F)c2F)Cn2c(CC(F)(F)F)nnc21)N1CCC2(CC1)C(=O)Nc1ncccc12 | > 13000 | bioavailability [5]: 6% |
| 2.9 nM | 0.05 nM | – | 0.32 nM | CCOC(C)(C)c1cnc2n1C[C@H](c1cccc(F)c1F)CC[C@H]2NC(=O)N1CCC2(CC1)OC(=O)Nc1ncccc12 | 23000 | – |
| 1.7 nM | 0.14 nM | 15% | 0.61 nM | COCc1cnc2n1C[C@H](c1cccc(F)c1F)CC[C@H]2NC(=O)N1CCC2(CC1)OC(=O)Nc1ncccc12 | 8900 | – |
| 8.6 nM | 0.63 nM | – | 1.4 nM | O=C(N[C@@H]1CC[C@@H](c2cccc(F)c2F)Cn2c(C3(C(F)(F)F)CC3)cnc21)N1CCC2(CC1)C(=O)Nc1ncccc12 | 880 | – |
| 13 nM | 0.16 nM | – | 0.65 nM | CC(C)(OCC(F)(F)F)c1cnc2n1C[C@H](c1cccc(F)c1F)CC[C@H]2NC(=O)N1CCC2(CC1)OC(=O)Nc1ncccc12 | 6100 | – |
| 4.3 nM | 0.62 nM | – | 1.7 nM | COCc1cnc2n1C[C@H](c1cccc(F)c1F)CC[C@H]2NC(=O)N1CCC2(CC1)C(=O)Nc1ncccc12 | 9500 | bioavailability [5]: 21% |
| 2 nM | 0.07 nM | 33% | 0.41 nM | O=C1Nc2ncccc2C2(CCN(C(=O)N[C@@H]3CC[C@@H](c4cccc(F)c4F)Cn4c(CC(F)(F)F)cnc43)CC2)O1 | – | bioavailability [8]: 28%; bioavailability [9]: 17%; EC90 (Rhesus monkey [12]): 1000 nM |

Second part, the compound before the results:

| Compound | IC50 [1] | Ki [2] | bioavailability [3] | IC50 [4] | Ratio IC50 (Homo sapiens) | other results |
| --- | --- | --- | --- | --- | --- | --- |
| O=C(N[C@@H]1CC[C@@H](c2cccc(F)c2F)Cn2c(C3CC3)nnc21)N1CCC(n2c(=O)[nH]c3ncccc32)CC1 | 2.4 nM | 1 nM | 2% | 1.6 nM | – | Papp [6]: 4 ×10⁻⁶ cm/s |
| CN(C)C(=O)c1cnc2n1C[C@H](c1cccc(F)c1F)CC[C@H]2NC(=O)N1CCC(n2c(=O)[nH]c3ncccc32)CC1 | 7.4 nM | 2.8 nM | – | 4.1 nM | – | – |
| O=C(N[C@@H]1CC[C@@H](c2cccc(F)c2F)CN(CC(F)(F)F)C1=O)N1CCC(n2c(=O)[nH]c3ncccc32)CC1 [TELCAGEPANT] | – | – | – | – | – | solubility [11]: 30 µg/mL (≈ 53 µM); Papp [6]: 21 ×10⁻⁶ cm/s |
| O=C(N[C@@H]1CC[C@@H](c2cccc(F)c2F)Cn2ccnc21)N1CCC(n2c(=O)[nH]c3ncccc32)CC1 | 19 nM | 3.1 nM | – | 6.7 nM | – | – |
| O=C(N[C@@H]1CC[C@@H](c2cccc(F)c2F)Cn2c(-c3ccccc3)cnc21)N1CCC(n2c(=O)[nH]c3ncccc32)CC1 | 34 nM | 1.1 nM | – | 2.6 nM | – | – |
| O=C(N[C@@H]1CC[C@@H](c2cccc(F)c2F)Cn2c(CC(F)(F)F)cnc21)N1CCC(n2c(=O)[nH]c3ncccc32)CC1 | 2.6 nM | 0.14 nM | 35% | 0.37 nM | – | Papp [6]: 24 ×10⁻⁶ cm/s |
| CNCCc1cnc2n1C[C@H](c1cccc(F)c1F)CC[C@H]2NC(=O)N1CCC(n2c(=O)[nH]c3ncccc32)CC1 | 15 nM | 5.7 nM | – | 12 nM | – | – |
| CCC(CC)(OC)c1cnc2n1C[C@H](c1cccc(F)c1F)CC[C@H]2NC(=O)N1CCC2(CC1)OC(=O)Nc1ncccc12 | 0.42 nM | 0.039 nM | – | 0.25 nM | 3200 | – |
| COCc1cnc2n1C[C@H](c1cccc(F)c1F)CC[C@H]2NC(=O)N1CCC(n2c(=O)[nH]c3ncccc32)CC1 | 1.9 nM | 0.38 nM | – | 0.63 nM | – | – |
| O=C(N[C@@H]1CC[C@@H](c2cccc(F)c2F)Cn2cc(CO)nc21)N1CCC(n2c(=O)[nH]c3ncccc32)CC1 | 26 nM | 3.2 nM | – | 12 nM | – | – |
| O=C(N[C@@H]1CC[C@@H](c2cccc(F)c2F)Cn2cc(CC(F)(F)F)nc21)N1CCC(n2c(=O)[nH]c3ncccc32)CC1 | 33 nM | 3.9 nM | – | 7.2 nM | – | – |
| O=C(N[C@@H]1CC[C@@H](c2cccc(F)c2F)Cn2c(-c3nccs3)cnc21)N1CCC(n2c(=O)[nH]c3ncccc32)CC1 | 64 nM | 1.1 nM | – | 3.6 nM | – | – |
| Cc1cn2c(n1)[C@H](NC(=O)N1CCC(n3c(=O)[nH]c4ncccc43)CC1)CC[C@@H](c1cccc(F)c1F)C2 | 28 nM | 4 nM | – | 8.7 nM | – | – |
| O=C(N[C@@H]1CC[C@@H](c2cccc(F)c2F)Cn2c(CO)cnc21)N1CCC(n2c(=O)[nH]c3ncccc32)CC1 | 12 nM | 2.5 nM | – | 7.9 nM | – | – |
| CC(C)c1cnc2n1C[C@H](c1cccc(F)c1F)CC[C@H]2NC(=O)N1CCC(n2c(=O)[nH]c3ncccc32)CC1 | 3.2 nM | 0.69 nM | – | 0.62 nM | – | – |
| Cc1cnc2n1C[C@H](c1cccc(F)c1F)CC[C@H]2NC(=O)N1CCC(n2c(=O)[nH]c3ncccc32)CC1 | 12 nM | 2.2 nM | – | 4.1 nM | – | – |
| COC(C)(C)c1cnc2n1C[C@H](c1cccc(F)c1F)CC[C@H]2NC(=O)N1CCC(n2c(=O)[nH]c3ncccc32)CC1 | 0.61 nM | 0.04 nM | – | 0.31 nM | – | – |
